Measured values as given in patent publication US20220241349A1, “METHOD FOR PRODUCING MARINE ALGAE-DERIVED AGAROTRIOSE, AND USE THEREOF AS PREBIOTIC” (Korea University Research and Business Foundation, priority 2017, published 2022).

Tests used:
[1] = tested on: Bifidobacterium longum subsp. infantis ATCC 15697 strain; assay: Cell growth with each purified sugar as single carbon source (Bioscreen C); assay type: cell-based; conditions: 5 g/L of each purified sugar, 37° C.
Protocol: In this case, as a culture composition, 10 g/L of BactoPeptone, 5 g/L of a yeast extract, 2 g/L of K2HPO4 anhydride, 5 g/L of Na acetate anhydride, 2 g/L of NH4 citrate tribasic, 0.2 g/L of Mg sulfate heptahydrate, 0.05 g/L of Mn sulfate, 1 mL/L of Tween 80 (polysorbate 80), 0.5 g/L of cysteine, and 5 g/L of each purified sugar were used and cultured at 37° C.

[2] = tested on: Bifidobacterium longum subsp. infantis ATCC 15697 strain; assay: Agarotriose fermentation profile under test tube condition; assay type: cell-based; conditions: 5 g/L agarotriose as carbon source
Protocol: In order to monitor fermentation products, a Bifidobacterium longum subsp. Infantis ATCC 15697 strain was cultured under a test tube condition.

[3] = tested on: B. kashiwanohense DSM 21854; assay: Fermentation ability of agarotriose as single carbon source; assay type: cell-based
Protocol: (§1) In order to confirm whether agarotriose also had prebiotic effects on probiotic microorganisms other than a Bifidobacterium longum subsp. infantis ATCC 15697 strain, Bifidobacterium longum subsp. infantis ATCC 17930, Bifidobacterium longum subsp. infantis ATCC 15702, B. bifidum DSM 20082, and B. kashiwanohense DSM 21854 were cultured under agarotriose single carbon source conditions.

[4] = tested on: Bifidobacterium longum subsp. infantis ATCC 15702; assay: as above; assay type: cell-based
Protocol: as §1

[5] = tested on: Bifidobacterium longum subsp. infantis ATCC 17930; assay: as above; assay type: cell-based
Protocol: as §1

B. bifidum DSM 20082 = assay: as above; assay type: cell-based
Protocol: as §1

[6] = tested on: crude enzyme solution of a Bifidobacterium longum subsp. infantis ATCC 15697 strain; assay: Degradation experiment using crude enzyme solution; assay type: biochemical; conditions: 2 mg/mL crude enzyme, 2 mg/mL substrate, 30° C., pH 7.0, 2 hours
Protocol: In order to confirm the metabolic pathway of agarotriose, an experiment was performed on a crude enzyme solution of a Bifidobacterium longum subsp. infantis ATCC 15697 strain. For this purpose, cells and the medium were separated by centrifugation (14,000 rpm, 5 minutes, 4° C.) of a culture solution of Bifidobacterium longum subsp. infantis ATCC 15697 cultured under an agarotriose condition. An extracellular crude enzyme was obtained by ammonium sulfate precipitation of a supernatant. Further, for a cell-free extract including an intracellular crude enzyme, a supernatant crude enzyme was obtained by re-suspending cells in a 20 mM Tris-HCl buffer, and then lysing the cells by sonication, and centrifuging the lysate. During the crude enzyme experiment, 2 mg/mL of the crude enzyme and 2 mg/mL of agarotriose as a substrate were used to perform a reaction under an enzymatic reaction condition of 30° C. and 200 rpm in a 20 mM Tris-HCl buffer (pH 7.0) for 2 hours.

[7] = Stability test against artificial gastric juice; assay type: in vitro ADME; conditions: 37° C., 3 hours, TLC and HPLC
Text: In order to test whether agarotriose could reach the intestines without being degraded, agarotriose was reacted in artificial gastric juice for each time, and then it was confirmed whether agarotriose was degraded, using TLC and HPLC.

Structure (SMILES)	fermentation (cell growth) of the sugar as single carbon source [1]	fate of the sugar during fermentation [2]	metabolism of agarotriose [3]	metabolism of agarotriose [4]	metabolism of agarotriose [5]	metabolism of agarotriose (B. bifidum DSM 20082)	degradation of the substrate by crude enzyme [6]	agarotriose remained [7] [%]
OC[C@H]1O[C@@H](O[C@H]2[C@H]3OC[C@@H]2O[C@@H](O[C@@H]2[C@@H](O)[C@H](O)O[C@H](CO)[C@@H]2O)[C@H]3O)[C@H](O)[C@@H](O)[C@H]1O [agarotriose]	selectively fermented	degraded agarotriose into galactose and neoagarobiose	metabolized agarotriose and degraded agarotriose into galactose and neoagarobiose	metabolized agarotriose and degraded agarotriose into galactose and neoagarobiose	metabolized agarotriose and degraded agarotriose into galactose and neoagarobiose	metabolized agarotriose and degraded agarotriose into galactose and neoagarobiose	degrading agarotriose into galactose and neoagarobiose occurred in the cell-free extract	≥ 80
OC[C@H]1OC(O)[C@H](O)[C@@H](O[C@@H]2O[C@H]3CO[C@@H]([C@@H]2O)[C@@H]3O)[C@H]1O (stereo partly shown) [neoagarobiose, reference compound]	–	secreted and accumulated outside the cells without being degraded in the cells any more	–	–	–	–	not exhibited	–
